# Results as given in patent US20250051347A1, “BIFUNCTIONAL CHIMERIC HETEROCYCLIC COMPOUND AND USE THEREOF AS ANDROGEN RECEPTOR DEGRADER” (Hinova Pharmaceuticals, Inc., priority 2021, published 2025).
# Target: T1, androgen receptor (AR) splicing variant AR-v7 (Homo sapiens, UniProt P10275)
# T1 construct: The degradation activity of compounds on AR-v7 in 22RV1 cells; host or cells: 22RV1 cells
# T1 sequence (P10275 1-644 isoform P10275-3): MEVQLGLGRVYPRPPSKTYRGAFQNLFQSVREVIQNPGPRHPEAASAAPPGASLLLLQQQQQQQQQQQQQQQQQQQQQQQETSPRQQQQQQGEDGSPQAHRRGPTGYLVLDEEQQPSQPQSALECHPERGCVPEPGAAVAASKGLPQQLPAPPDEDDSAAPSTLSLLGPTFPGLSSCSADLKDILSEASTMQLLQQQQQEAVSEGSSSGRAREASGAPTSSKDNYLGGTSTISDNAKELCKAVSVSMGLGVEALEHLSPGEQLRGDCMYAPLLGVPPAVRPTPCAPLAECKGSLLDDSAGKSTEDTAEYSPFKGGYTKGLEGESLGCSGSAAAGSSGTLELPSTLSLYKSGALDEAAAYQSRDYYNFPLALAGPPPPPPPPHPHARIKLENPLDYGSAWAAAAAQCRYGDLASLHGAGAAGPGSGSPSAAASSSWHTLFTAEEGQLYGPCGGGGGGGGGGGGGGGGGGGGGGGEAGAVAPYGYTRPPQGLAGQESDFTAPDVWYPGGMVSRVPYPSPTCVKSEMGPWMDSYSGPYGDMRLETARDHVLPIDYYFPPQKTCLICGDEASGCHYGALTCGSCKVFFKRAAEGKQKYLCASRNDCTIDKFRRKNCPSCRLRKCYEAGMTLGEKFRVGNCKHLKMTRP
# Assay: Degradation activity on androgen receptor splicing variant AR-v7 in 22RV1 cells (ELISA)
# Type: cell-based
# Conditions: AR-v7 degradation in 22RV1 cells, 48 h, class symbols
# Experimental: The degradation activity of the compound of the present invention on the androgen receptor splicing variant AR-V7 was analyzed using enzyme-linked immunosorbent assay (ELISA).
# The plate was cultured in a 5% CO2 cell incubator at 37° C. for 2 days until the cells adhered to the wall. • 2) The drug was prepared into 10 mM stock solution with dimethylsulfoxide (DMSO). […] The plate was gently shaken and mixed. In addition, negative control wells (only containing culture medium) and positive control wells (only containing cells and DMSO) were set. • 3) After the cells were cultured in an incubator for 48 h, the medium was removed and the cells were rinsed once with ice cold PBS. Then, ice-cold 1× cell lysis buffer was added to each well of the cell culture plate. After the plate was incubated on ice for 15 min, the plate was tapped to mix. • 4) The supernatant of the cell lysate was transferred from the cell culture plate to a […] plate for ELISA. • 5) The newly prepared Capture antibody (green) was mixed with the newly prepared HRP-labeled antibody (red), and then the antibody mixture was added to the above 96-well ELISA plate. • 6) The ELISA plate was sealed with plastic film, and then incubated in a 25° C. incubator for 1 h. • 7) The washing buffer was added to each well, and then TMB substrate was added to each well of the ELISA plate. Subsequently, the plate was cultured in an incubator at 37° C. for 5 min. • 8) 100 μl of stop solution was added to each well of the ELISA plate, and the plate was gently tapped for several seconds. The absorbance was read at 450 nm within 30 min. The data were analyzed by the Dose-response equation in the software GraphPad Prism8, to obtain DC50 and Dmax values.
row,Structure (SMILES),DC50 [µM]
1,"CC(C)(c1ccc(OCCCCCCCCOCCCCNc2ccc3c(c2)C(=O)N(C2CCC(=O)NC2=O)C3=O)cc1)c1ccc(OCc2ccnc(NS(C)(=O)=O)n2)cc1 (stereo not shown) [Example 22, N-(4-((4-(2-(4-((8-(4-((2-(2,6-dioxopiperidin-3-yl)-1,3-dioxoisoindolin-5-yl)amino)butoxy)octyl)oxy)phenyl)propan-2-yl)phenoxy)methyl)pyrimidin-2-yl)methanesulfonamide]",0.101 to 1
2,CC(C)(c1ccc(OCCCCCCCOCCCOCCCNc2cccc3c2C(=O)N(C2CCC(=O)NC2=O)C3=O)cc1)c1ccc(OCc2ccnc(NS(C)(=O)=O)n2)cc1 (stereo not shown) [Example 23],1 to 5
3,"CC(=O)Nc1nccc(COc2ccc(C(C)(C)c3ccc(OCCCCCCCCOCCCCNc4ccc5c(c4)C(=O)N(C4CCC(=O)NC4=O)C5=O)cc3)cc2)n1 (stereo not shown) [Example 26, N-(4-((4-(2-(4-((8-(4-((2-(2,6-dioxopiperidin-3-yl)-1,3-dioxoisoindolin-5-yl)amino)butoxy)octyl)oxy)phenyl)propan-2-yl)phenoxy)methyl)pyrimidin-2-yl)acetamide]",1 to 5
4,"CC(C)(c1ccc(OCCCCCCCCOCCCCNc2ccc3c(c2)C(=O)N(C2CCC(=O)NC2=O)C3=O)cc1)c1ccc(OCc2cccc(NS(C)(=O)=O)n2)cc1 (stereo not shown) [Example 33, N-(6-((4-(2-(4-((8-(4-((2-(2,6-dioxopiperidin-3-yl)-1,3-dioxoisoindolin-5-yl)amino)butoxy)octyl)oxy)phenyl)propan-2-yl)phenoxy)methyl)pyridin-2-yl)methanesulfonamide]",0.101 to 1
5,"CC(C)(c1ccc(OCCCNc2ccc3c(c2)C(=O)N(C2CCC(=O)NC2=O)C3=O)cc1)c1ccc(OCc2ccnc(NS(C)(=O)=O)n2)cc1 (stereo not shown) [Example 37, N-(4-((4-(2-(4-(3-((2-(2,6-dioxopiperidin-3-yl)-1,3-dioxoisoindolin-5-yl)amino)propoxy)phenyl)propan-2-yl)phenoxy)methyl)pyrimidin-2-yl)methanesulfonamide]",1 to 5

# Same assay, conditions: AR-v7 degradation in 22RV1 cells, 48 h, numeric values
row,DC50 [µM],Structure (SMILES)
1,> 10,CC(C)(c1ccc(OCCCCCCCOCCCOCCCNc2ccc3c(c2)C(=O)N(C2CCC(=O)NC2=O)C3=O)cc1)c1ccc(OCc2ccnc(NS(C)(=O)=O)n2)cc1 (stereo not shown) [Example 24]
2,7.58,"CC(C)(c1ccc(OCCCCCCCCOCCCCNc2ccc3c(c2)C(=O)N(C2CCC(=O)NC2=O)C3=O)cc1)c1ccc(OCc2ccnc(N3CCCS3(=O)=O)n2)cc1 (stereo not shown) [Example 27, 5-((4-((8-(4-(2-(4-((2-(1,1-dioxoisothiazolidin-2-yl)pyrimidin-4-yl)methoxy)phenyl)propan-2-yl)phenoxy)octyl)oxy)butyl)amino)-2-(2,6-dioxopiperidin-3-yl)isoindolin-1,3-dione]"
3,5.27,"CC(C)(c1ccc(OCCCCCCCCOCCCCNc2ccc3c(c2)C(=O)N(C2CCC(=O)NC2=O)C3=O)cc1)c1ccc(OCc2ccnc(N)n2)cc1 (stereo not shown) [Example 28, 5-((4-((8-(4-(2-(4-((2-aminopyrimidin-4-yl)methoxy)phenyl)propan-2-yl)phenoxy)octyl)oxy)butyl)amino)-2-(2,6-dioxopiperidin-3-yl)isoindolin-1,3-dione]"
4,> 10,"CC(C)(c1ccc(OCCCCCCCCN2CC3(C2)CN(c2ccc4c(c2)C(=O)N(C2CCC(=O)NC2=O)C4=O)C3)cc1)c1ccc(OCc2ccnc(NS(C)(=O)=O)n2)cc1 (stereo not shown) [Example 30, N-(4-((4-(2-(4-((8-(6-(2-(2,6-dioxopiperidin-3-yl)-1,3-dioxoisoindolin-5-yl)-2,6-diazaspiro[3.3]heptan-2-yl)octyl)oxy)phenyl)propan-2-yl)phenoxy)methyl)pyrimidin-2-yl)methanesulfonamide]"
5,> 5,"CC(C)(c1ccc(OCCCCCNc2ccc3c(c2)C(=O)N(C2CCC(=O)NC2=O)C3=O)cc1)c1ccc(OCc2ccnc(NS(C)(=O)=O)n2)cc1 (stereo not shown) [Example 38, N-(4-((4-(2-(4-((5-((2-(2,6-dioxopiperidin-3-yl)-1,3-dioxoisoindolin-5-yl)amino)pentyl)oxy)phenyl)propan-2-yl)phenoxy)methyl)pyrimidin-2-yl)methanesulfonamide]"

# Continued, molecule first:
row,Structure (SMILES),DC50 [µM]
1,"CC(C)(c1ccc(OCCCCCCCCOCCCCNc2cccc3c2C(=O)N(C2CCC(=O)NC2=O)C3=O)cc1)c1ccc(OCc2ccnc(NS(C)(=O)=O)n2)cc1 (stereo not shown) [Example 21, N-(4-((4-(2-(4-((8-(4-((2-(2,6-dioxopiperidin-3-yl)-1,3-dioxoisoindolin-4-yl)amino)butoxy)octyl)oxy)phenyl)propan-2-yl)phenoxy)methyl)pyrimidin-2-yl)methanesulfonamide]",5.77
2,"CN(c1nccc(COc2ccc(C(C)(C)c3ccc(OCCCCCCCCOCCCCNc4ccc5c(c4)C(=O)N(C4CCC(=O)NC4=O)C5=O)cc3)cc2)n1)S(C)(=O)=O (stereo not shown) [Example 25, N-(4-((4-(2-(4-((8-(4-((2-(2,6-dioxopiperidin-3-yl)-1,3-dioxoisoindolin-5-yl)amino)butoxy)octyl)oxy)phenyl)propan-2-yl)phenoxy)methyl)pyrimidin-2-yl)-N-methyl methanesulfonamide]",> 10
3,"CC(C)(c1ccc(OCCCN2CCN(CC3CCN(CCCNc4ccc5c(c4)C(=O)N(C4CCC(=O)NC4=O)C5=O)CC3)CC2)cc1)c1ccc(OCc2ccnc(NS(C)(=O)=O)n2)cc1 (stereo not shown) [Example 29, N-(4-((4-(2-(4-(3-(4-((1-(3-((2-(2,6-dioxopiperidin-3-yl)-1,3-dioxoisoindolin-5-yl)amino)propyl)piperidin-4-yl)methyl)piperazin-1-yl)propoxy)phenyl)propan-2-yl)phenoxy)methyl)pyrimidin-2-yl)methanesulfonamide]",6.33
4,"CC(C)(c1ccc(OCCCCCCCCOCCCCNc2ccc3c(c2)C(=O)N(C2CCC(=O)NC2=O)C3=O)cc1)c1ccc(OCc2cncc(NS(C)(=O)=O)n2)cc1 (stereo not shown) [Example 31, N-(6-((4-(2-(4-((8-(4-((2-(2,6-dioxopiperidin-3-yl)-1,3-dioxoisoindolin-5-yl)amino)butoxy)octyl)oxy)phenyl)propan-2-yl)phenoxy)methyl)pyrazin-2-yl)methanesulfonamide]",> 10
5,"CC(C)(c1ccc(OCCCCCCCCOCCCCNc2ccc3c(c2)C(=O)N(C2CCC(=O)NC2=O)C3=O)cc1)c1ccc(OCc2nccc(NS(C)(=O)=O)n2)cc1 (stereo not shown) [Example 32, N-(2-((4-(2-(4-((8-(4-((2-(2,6-dioxopiperidin-3-yl)-1,3-dioxoisoindolin-5-yl)amino)butoxy)octyl)oxy)phenyl)propan-2-yl)phenoxy)methyl)pyrimidin-4-yl)methanesulfonamide]",> 10
6,"CC(C)(c1ccc(OCc2ccnc(NS(C)(=O)=O)n2)cc1)c1ccc(OC2CCN(c3ccc4c(c3)C(=O)N(C3CCC(=O)NC3=O)C4=O)CC2)cc1 (stereo not shown) [Example 34, N-(4-((4-(2-(4-((1-(2-(2,6-dioxopiperidin-3-yl)-1,3-dioxoisoindolin-yl)piperidin-4-yl)oxy)phenyl)propan-2-yl)phenoxy)methyl)pyrimidin-2-yl)methanesulfonamide]",> 10
7,"CC(C)(c1ccc(OCc2ccnc(NS(C)(=O)=O)n2)cc1)c1ccc(OC2CCN(c3cccc4c3C(=O)N(C3CCC(=O)NC3=O)C4=O)CC2)cc1 (stereo not shown) [Example 35, N-(4-((4-(2-(4-((1-(2-(2,6-dioxopiperidin-3-yl)-1,3-dioxoisoindolin-4-yl)piperidin-4-yl)oxy)phenyl)propan-2-yl)phenoxy)methyl)pyrimidin-2-yl)methanesulfonamide]",> 10
8,"CC(C)(c1ccc(OCc2ccnc(NS(C)(=O)=O)n2)cc1)c1ccc(OC2CCN(CCCCOCCCCNc3ccc4c(c3)C(=O)N(C3CCC(=O)NC3=O)C4=O)CC2)cc1 (stereo not shown) [Example 36, N-(4-((4-(2-(4-((1-(4-(4-(4-)((2-(2,6-dioxopiperidin-3-yl)-1,3-dioxoisoindolin-5-yl)amino)butoxy)butyl)piperidin-4-yl)oxy)phenyl)propan-2-yl)phenoxy)methyl)pyrimidin-2-yl)methanesulfonamide]",> 10
9,CC(C)(c1ccc(OCc2ccnc(NS(C)(=O)=O)n2)cc1)c1ccc(OC[C@H]2CC[C@H](CN3CCC(CN4CCC5(CC4)CN(c4ccc6c(c4)C(=O)N(C4CCC(=O)NC4=O)C6=O)C5)CC3)CC2)cc1 (stereo partly shown) [Example 39],> 10
